Assay: Dynamic vapor sorption (DVS) moisture sorption isotherm
Format: physicochemical
Conditions: relative humidity (RH) of 90%, sorption cycle 1
Procedure: DVS isotherms were generated on a Surface Measurement Systems Dynamic Vapor Sorption Advantage moisture sorption analyzer. Water adsorption and desorption were studied as a function of relative humidity over the range of 0 to 90% RH using 10% RH steps with a fixed equilibration time of 60 minutes per step.

| Compound | change in mass as measured by dynamic vapor sorption (DVS) |
| --- | --- |
| CC(C)OC(=O)[C@H](C)N[P@](=O)(OC[C@H]1O[C@@H](n2ccc(=O)[nH]c2=O)[C@](C)(F)[C@@H]1O)Oc1ccccc1 [Compound I, Form 7, (S)-isopropyl 2-((S)-(((2R,3R,4R,5R)-5-(2,4-dioxo-3,4-dihydropyrimidin-1(2H)-yl)-4-fluoro-3-hydroxy-4-methyltetrahydrofuran-2-yl)methoxy)(phenoxy)phosphorylamino) propanoate] | about 0.15% |
| CC(C)OC(=O)[C@H](C)N[P@](=O)(OC[C@H]1O[C@@H](n2ccc(=O)[nH]c2=O)[C@](C)(F)[C@@H]1O)Oc1ccccc1 [Compound I, Form 8, (S)-isopropyl 2-(((S)-(((2R,3R,4R,5R)-5-(2,4-dioxo-3,4-dihydropyrimidin-1(2H)-yl)-4-fluoro-3-hydroxy-4-methyltetrahydrofuran-2-yl)methoxy)(phenoxy)phosphoryl)amino) propanoate] | about 0.17% |

Source: US9340568B2, “Solid forms of an antiviral compound” (Gilead Pharmasset LLC, priority 2013, dated 2016)
